{"source": "paper PMC12955470", "about": "“A novel approach to combat Pseudomonas aeruginosa: repurposing pharmaceuticals for inhibition of phospholipase A” (Microbiology Spectrum, 2026)", "biological_target": "T1, PlaF (Pseudomonas aeruginosa, UniProt G3XCU7)", "T1 construct": "gene PA2949; purified PlaF (pBBR-plaFH6, His-tagged) reconstituted into phospholipid liposomes", "T1 sequence (G3XCU7 entry or part of it)": "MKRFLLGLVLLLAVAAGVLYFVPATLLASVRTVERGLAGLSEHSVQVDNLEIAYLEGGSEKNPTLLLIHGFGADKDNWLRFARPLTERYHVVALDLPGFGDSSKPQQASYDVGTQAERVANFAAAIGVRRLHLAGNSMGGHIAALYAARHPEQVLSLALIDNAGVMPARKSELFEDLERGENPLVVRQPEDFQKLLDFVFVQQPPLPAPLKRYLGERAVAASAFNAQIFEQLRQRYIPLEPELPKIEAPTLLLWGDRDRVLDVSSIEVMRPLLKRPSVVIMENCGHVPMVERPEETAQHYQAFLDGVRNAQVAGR", "test": "p-NPB esterase assay with purified PlaF; Michaelis-Menten kinetics (Km increased, vmax unchanged)", "format": "biochemical"}
{"compound": "O=C(/C=C/c1ccc(/C=C/C(=O)Nc2ccc(C3=NCCN3)cc2)cc1)Nc1ccc(C2=NCCN2)cc1", "note": "[GW4869]", "values": [{"measurement": "inhibition at 69.2 µM", "result": "~30", "unit": "%"}]}
{"compound": "COCCN1CCC(N(Cc2ccc(-c3ccc(C(F)(F)F)cc3)cc2)C(=O)Cn2c(SCc3cccc(F)c3F)cc(=O)c3ccccc32)CC1", "note": "[rilapladib]", "values": [{"measurement": "inhibition at 400 µM", "result": "~50", "unit": "%"}]}
{"compound": "CCN(CC)CCN(Cc1ccc(-c2ccc(C(F)(F)F)cc2)cc1)C(=O)Cn1c(SCc2ccc(F)cc2)nc(=O)c2c1CCC2", "note": "[darapladib]", "values": [{"measurement": "inhibition at 400 µM", "result": "~50", "unit": "%"}]}
